From PMC4450062, “A Membrane-bound eIF2 Alpha Kinase Located in Endosomes Is Regulated by Heme and Controls Differentiation and ROS Levels in Trypanosoma cruzi” (PLoS Pathogens, 2015)

Biological target: T1, GST-TcK2 (kinase domain of TcK2, T. cruzi K2) (Trypanosoma cruzi, UniProt Q4E5B6)
T1 construct: gene Tc00.1047053506559.129; N-terminal GST fusion (pGEX5X-1), GST kept, 68 kDa; E. coli BL21; transmembrane and N-terminal domains absent
T1 sequence (Q4E5B6 638-984): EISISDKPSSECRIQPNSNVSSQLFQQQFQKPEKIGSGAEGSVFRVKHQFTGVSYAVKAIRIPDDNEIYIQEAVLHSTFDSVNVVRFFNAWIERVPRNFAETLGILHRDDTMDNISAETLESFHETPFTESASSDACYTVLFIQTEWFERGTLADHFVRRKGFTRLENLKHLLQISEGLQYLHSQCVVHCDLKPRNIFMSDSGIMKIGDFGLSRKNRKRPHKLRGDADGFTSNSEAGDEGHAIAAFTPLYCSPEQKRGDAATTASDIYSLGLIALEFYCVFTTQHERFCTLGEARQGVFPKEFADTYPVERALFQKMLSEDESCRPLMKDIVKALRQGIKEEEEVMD
Assay: Soret absorbance titration at […] nm
Assay type: binding
Conditions: 0.1 M Tris-HCl pH 7.4, 50 mM NaCl, 25 °C, 30 min incubation; 5 μg/ml protein; GST alone shows no Soret band; read-out: Kd^app

C=CC1=C(C)C2=Cc3c(C=C)c(C)c4[n]3[Fe]([Cl])[n]3c(c(C)c(CCC(=O)O)c3=CC3=NC(=C4)C(C)=C3CCC(=O)O)=CC1=N2 [hemin]
Kd: 2800 ± 600 nM
